From patent US11559517B2, “Promotion of epithelial repair” (Telethon Kids Institute, priority 2018, dated 2023)
Entries after “also recorded” stand apart in the source; their conditions may differ.

What was measured:
Type in all cases: cell-based, human
[1] = test system: pAEC from asthmatic children; assay: Scratch wound repair assay (wound closure), pAEC from asthmatic children; conditions: for accelerated repair compared to DMSO vehicle: 10 μM, 48 hours treatment post wounding; for promotion of pAEC repair relative to celecoxib: screen at 10 μM, cohort not given
Method: (§1) Two in vitro scratch wound models were used. […] Wound closure was calculated through image analysis by the accompanying live-cell imaging system (Essen Bioscience, Ann Arbor, Mich., USA).
(§2) To assess in vitro wound repair kinetics, linear scratch wounds were created using a commercial monolayer wounding kit. Once confluent, cell cultures were placed in starvation media (BEGM™ without epidermal growth factor) for about 24 hours prior to wounding. At the time of wounding, cell cultures were treated with compound dilution (10 μM), DMSO vehicle (0.05% v/v) or untreated. Wound closure rates were calculated through image analysis by the accompanying live-cell imaging system (Essen Bioscience, Ann Arbor, Mich., USA).

[2] = test system: pAEC from asthmatic children; assay: MTS cell viability assay, pAEC from asthmatic children
Method: (§3) Cell viability was assessed using a 3-[4,5-dimethylthiazol-2yl]-5-[3-carboxymethoxyphenyl]-2-[4-sulfophenyl]-2H-tetrazolium inner salt (MTS) assay (Promega).
Cell viability was assessed using a 3-[4,5-dimethylthiazol-2yl]-5-[3-carboxymethoxyphenyl]-2-[4-sulfophenyl]-2H-tetrazolium inner salt (MTS) assay (Promega, Madison, Wis., USA). Once confluent, cell cultures were treated with 10 μM compound, DMSO vehicle (0.05% v/v) or untreated for 48 hours.

[3] = test system: pAEC from non-asthmatic children; assay: MTS cell viability assay, pAEC from non-asthmatic children
Method: as §3
Cell viability was assessed using a 3-[4,5-dimethylthiazol-2yl]-5-[3-carboxymethoxyphenyl]-2-[4-sulfophenyl]-2H-tetrazolium inner salt (MTS) assay (Promega, Madison, Wis., USA). […]

integrin β1 [4] = assay: On-Cell Western assay of integrin β1 cell membrane expression, pAEC from non-asthmatic children; conditions: MK2206; 12 h treatment
Method: (§4) Cells were plated at 1.2×10^5 cells/cm^2 onto 96-well plates precoated with fibronectin ([…]) and maintained as described earlier. Briefly, following relevant treatments and controls, confluent cell monolayers were fixed with 10% (v/v) NBF for 20 minutes at room temperature and then either permeabilized with 0.1% (v/v) Triton X-100 or incubated with PBS for 25 minutes. Cells were blocked for 90 min at room temperature with the Odyssey® blocking buffer (PBS) (LI-COR Biosciences). Cells were then stained with rabbit anti-human integrin α5 (1:100; clone EPR7854, Abcam), mouse anti-human integrin β1 (1:1000; clone P5D2, Abcam), rabbit anti-human phospho-Akt (Ser473) (1:100; clone D9E, Abcam) or mouse anti-human total Akt (pan) (1:100; clone 40D4, Abcam) for 24 hours at 4° C. Antibody binding was determined using IRDye 800 CW-conjugated goat anti-rabbit IgG (1:800; 925-32211, LI-COR Biosciences) and goat anti-mouse IgG (1:800; 925-32210, LI-COR Biosciences), as well as DRAQ5 (1:10000; DR50200, BioStatus Limited) and Sapphire700 (1:1000; 928-40022, LI-COR Biosciences) for cell number normalization, for 1 hour at RT with gentle shaking in the dark. Specific antibody staining for protein expression was then immediately visualized and quantified using an infrared imaging system (LI-COR Biosciences). […]

[5] = test system: pAEC from non-asthmatic children; assay: Scratch wound repair assay (wound closure), pAEC from non-asthmatic children; conditions: treated at time of scratch wounding; Wortmannin 0.01-10 μM, MK2206 0.01-5 μM
Method: as §1, §2

Akt (serine residue 473) [6] = assay: In-Cell Western assay of Akt phosphorylation, pAEC from non-asthmatic children; conditions: concentration series (Wortmannin 0.01-10 μM, MK2206 0.01-5 μM); 12 h and 48 h post treatment
Method: (§5) Cells were plated at 1.2×10^5 cells/cm^2 onto 96-well plates precoated with fibronectin ([…]) and maintained as described earlier. Briefly, following relevant treatments and controls, confluent cell monolayers were fixed with 10% (v/v) NBF for 20 minutes at room temperature and then either permeabilized with 0.1% (v/v) Triton X-100 or incubated with PBS for 25 minutes. Cells were blocked for 90 min at room temperature with the Odyssey® blocking buffer (PBS) (LI-COR Biosciences). Cells were then stained with rabbit anti-human integrin α5 (1:100; clone EPR7854, Abcam), mouse anti-human integrin β1 (1:1000; clone P5D2, Abcam), rabbit anti-human phospho-Akt (Ser473) (1:100; clone D9E, Abcam) or mouse anti-human total Akt (pan) (1:100; clone 40D4, Abcam) for 24 hours at 4° C. Antibody binding was determined using IRDye 800 CW-conjugated goat anti-rabbit IgG (1:800; 925-32211, LI-COR Biosciences) and goat anti-mouse IgG (1:800; 925-32210, LI-COR Biosciences), as well as DRAQ5 (1:10000; DR50200, BioStatus Limited) and Sapphire700 (1:1000; 928-40022, LI-COR Biosciences) for cell number normalization, for 1 hour at RT with gentle shaking in the dark. Specific antibody staining for protein expression was then immediately visualized and quantified using an infrared imaging system (LI-COR Biosciences).

integrin α5 [7] = assay: On-Cell Western assay of integrin α5 cell membrane expression, pAEC from non-asthmatic children
Method: as §5
After this, cells were washed in 1× phosphate-buffered saline (PBS) and incubated with IRDye-conjugated secondary antibody (1:800 goat anti-rabbit and goat anti-mouse IgG, LI-COR Biosciences, Lincoln, Nebr., USA) containing DRAQ5 (1:10000, BioStatus Limited, Shepshed, United Kingdom) and Sapphire700 (1:1000, LI-COR Biosciences, Lincoln, Nebr., USA) for 1 hour at RT with gentle shaking in a dark room. Cells were then washed for an additional five times in PBS. Specific antibody staining for protein expression was then immediately visualized using an infrared imaging system (LI-COR Biosciences, Lincoln, Nebr., USA

[8] = test system: leading edge pAEC from non-asthmatic children; assay: Leading edge cell tracking after scratch wounding, pAEC from non-asthmatic children; conditions: Wortmannin 0.01-10 μM, MK2206 0.01-5 μM
Method: (§6) Manual Tracking, an ImageJ2 plugin publicly available was utilized for its capacity to manually track cells in two dimensions, the x and y planes. […] The selected cells were tracked over the first 12 h post wounding, where this procedure generated x and y coordinates for the position of the nucleus of each tracked cell at each time point. The x,y coordinates of the tracked cells were exported in a tab delimited format and all tracks were transformed to migrate up towards the y-axis. Graphical representation and analysis of the cell migration parameters was performed using the Chemotaxis and Migration Tool 2.0 (Ibidi®, Martinsried, Bayern, Germany). […] Migration parameters of cell tracks were then quantified including; (1) distance migrated (μm) which represented the displacement of a cell from the start to its endpoint, (2) velocity (μm/min), which is a function of displacement overtime, and (3) directionality (AU), which represents a measurement of the directness or straightness of a cell trajectory and was calculated as a ratio of the cell displacement over the accumulated distance migrated. […] Since directionality is not a direct measure of chemotaxis, the determined forward migration index (FMI) (AU) was then utilized to represent the efficiency of the leading edge cells to migrate towards the center of the wounded area. […]

[9] = test system: leading edge pAEC from asthmatic children; assay: Leading edge cell tracking after scratch wounding, pAEC from asthmatic children; conditions: SC79 0.5-20 μM
Method: as §6

integrin α5 [10] = assay: On-Cell Western assay of integrin α5 cell membrane expression, pAEC from asthmatic children; conditions: 0.5, 2 and 5 μM SC79; 12 h and 48 h
Method: as §4

Akt (serine residue 473) [11] = assay: In-Cell Western assay of Akt phosphorylation, pAEC from asthmatic children; conditions: SC79 0.5-20 μM; 12 h and 48 h post treatment
Method: as §5

integrin β1 [12] = assay: On-Cell Western assay of integrin β1 cell membrane expression, pAEC from asthmatic children; conditions: 0.5, 2 and 5 μM SC79; 12 h and 48 h
Method: as §4

[13] = test system: pAEC from asthmatic children; assay: Scratch wound repair assay (wound closure), pAEC from asthmatic children; conditions: SC79 0.5-20 μM at time of scratch wounding
[14] = 10 μM, 48 hours, change of less than or equal to 20% relative to DMSO vehicle considered non-cytotoxic
[15] = 0.01, 0.1, 1 μM (all concentrations bar the highest)

Compound: NS(=O)(=O)c1ccccc1 [Compound C2, Benzenesulfonamide]
- accelerated repair compared to DMSO vehicle [1]: no improvement

Compound: Cc1ccc(-c2cc(C(F)(F)F)nn2-c2ccc(S(N)(=O)=O)cc2)cc1 [Compound C3, Celecoxib]
- cell viability (MTS) [2, 14]: did not display any change in cell viability
- cell viability (MTS) ([2]; 0.01, 0.1, 1, 10 μM, listed as Celecoxib): did not cause significant cytotoxicity
- cell viability (MTS) ([2]; 0.01, 0.1, 1, 10 μM, listed as celecoxib): not cytotoxic
- cell viability (MTS) [3, 14]: did not display any change in cell viability

Compound: Cc1ccc(C)c(-c2cc(C(F)(F)F)nn2-c2ccc(S(N)(=O)=O)cc2)c1 [Compound C6, 2,5-Dimethyl-Celecoxib]
- promotion of pAEC repair relative to celecoxib [1]: comparable efficacy

Compound: CC(=NNc1ccc(S(N)(=O)=O)cc1)c1ccc(C)cc1 [Compound C11]
- accelerated repair compared to DMSO vehicle [1]: no improvement

Compound: CN1C(C(=O)Nc2ccccn2)=C(O)c2ccccc2S1(=O)=O [Compound C13, Piroxicam]
- accelerated repair compared to DMSO vehicle [1]: no improvement

Compound: O=C(O)c1cc(/N=N/c2ccc(S(=O)(=O)Nc3ccccn3)cc2)ccc1O [Compound C15, Sulfasalazine]
- accelerated repair compared to DMSO vehicle [1]: no improvement

Compound: Nc1ccc(S(N)(=O)=O)cc1 [Compound C17, Sulfanilamide]
- accelerated repair compared to DMSO vehicle [1]: no improvement

Compound: Cc1ccc(-c2cc(C(F)(F)F)n[nH]2)cc1 [Compound C19, 3-Trifluoromethy1-5-(p-tolyl)-1H-pyrazole]
- accelerated repair compared to DMSO vehicle [1]: no improvement

Compound: CS(=O)(=O)c1ccc(-n2nc(C(F)(F)F)cc2-c2ccc(F)cc2)cc1 [Compound C22, 5-(4-fluorophenyl)-1-[4-(methylsulfonyl)phenyl]-3-(trifluoromethyl)-1H-pyrazole]
- promotion of pAEC repair relative to celecoxib [1]: to a greater degree than celecoxib

Compound: NC1(c2ccc(-c3nc4ccn5c(=O)[nH]nc5c4cc3-c3ccccc3)cc2)CCC1 [MK2206]
- integrin β1 cell membrane expression (integrin β1 [4]): did not have a significant effect
- wound closure rates (effect in words) [5]: significant inhibition; also recorded: concentration-dependent reduction in wound closure rates
- activation/phosphorylation of Akt (Ser473) (Akt (serine residue 473) [6]): significant inhibition; also recorded: inhibited activation of Akt
- integrin α5 cell membrane expression (integrin α5 [7]; 1 μM MK2206, 48 h): significant inhibition; also recorded: Significant reduction
- integrin α5 cell membrane expression (integrin α5 [7]; MK2206, concentration-dependent, 12 h treatment): concentration-dependent inhibition; also recorded: significant reduction of integrin α5
- integrin α5 cell membrane expression (integrin α5 [7]; lower concentrations of MK2206 (below 1 μM), 48 h): not with the lower concentrations
- leading edge cell migration (distance migrated, velocity, directionality, yFMI) [8]: significant inhibition; also recorded: inhibited distance migrated, velocity, directionality and centrality (yFMI)
- cell viability (MTS) [3, 15]: did not cause significant cytotoxicity

Compound: CCOC(=O)C1=C(N)Oc2ccc(Cl)cc2C1C(C#N)C(=O)OCC (stereo not drawn) [SC79, 2-Amino-6-chloro-α-cyano-3-(ethoxycarbonyl)-4H-1-benzopyran-4-acetic acid ethyl ester]
- leading edge cell migration (distance migrated, velocity, directionality, yFMI) [9]: stimulated leading edge cell migration; also recorded: stimulated distance migrated, velocity, directionality and centrality (yFMI)
- integrin α5 cell membrane expression (integrin α5 [10]): restored their integrin α5 and β1 expression to equivalent levels to those of non-asthmatic children; also recorded: Significant activation
- cell viability (MTS) ([2]; SC79 0.5, 2, 5, 10, 20 μM): did not alter cell viability; also recorded: did not cause significant cytotoxicity
- phosphorylation of Akt (Ser473) (Akt (serine residue 473) [11]): augment Akt signaling in a concentration-dependent manner; also recorded: resulted in phosphorylation of Akt
- integrin β1 cell membrane expression (integrin β1 [12]): restored their integrin α5 and β1 expression to equivalent levels to those of non-asthmatic children; also recorded: Significant activation
- wound closure rates (effect in words) [13]: significantly enhanced wound closure; also recorded: concentration-dependent increase in wound closure rates

Compound: COC[C@H]1OC(=O)c2coc3c2[C@@]1(C)C1=C(C3=O)[C@@H]2CCC(=O)[C@@]2(C)C[C@H]1OC(C)=O [Wortmannin]
- cell viability (MTS) ([3]; 10 μM Wortmannin): significant loss of viability
- cell viability (MTS) [3, 15]: did not have a significant cytotoxic effect; also recorded: did not cause significant cytotoxicity

Compound: Cc1ccc(C)c(-c2cc(C(F)(F)F)nn2-c2ccc(S(N)(=O)=O)cc2)c1 [dimethyl-Celecoxib]
- cell viability (MTS) ([2]; 0.01, 0.1, 1, 10 μM): did not cause significant cytotoxicity
- cell viability (MTS) ([2]; 0.01, 0.1, 1, 10 μM, listed as dimethyl-celecoxib): not cytotoxic
